This assay deals with T1, β‐glucosidase (GH1 family, bglB) (Paenibacillus polymyxa, UniProt P22505).
T1 construct: full-length protein encoded by bglB (448 aa, GenBank M60211.1), six His-tags, pET-28a(+), expressed in E. coli BL21(DE3)
The experiment in a line: LSPR (enzyme immobilised on COOH chip, […] model); supported by fluorescence quenching, UV-Vis and CD. It counts as binding.

The structures appear in SMILES notation.

The source of these data is PMC8020931, “Spectroscopic and in silico investigation of the interaction between GH1 β‐glucosidase and ginsenoside Rb1” (Food Science & Nutrition, 2021).

As a reminder, the Kd is the equilibrium constant for the complex coming apart. Read a low Kd as tighter binding.

T1 sequence (P22505 whole entry): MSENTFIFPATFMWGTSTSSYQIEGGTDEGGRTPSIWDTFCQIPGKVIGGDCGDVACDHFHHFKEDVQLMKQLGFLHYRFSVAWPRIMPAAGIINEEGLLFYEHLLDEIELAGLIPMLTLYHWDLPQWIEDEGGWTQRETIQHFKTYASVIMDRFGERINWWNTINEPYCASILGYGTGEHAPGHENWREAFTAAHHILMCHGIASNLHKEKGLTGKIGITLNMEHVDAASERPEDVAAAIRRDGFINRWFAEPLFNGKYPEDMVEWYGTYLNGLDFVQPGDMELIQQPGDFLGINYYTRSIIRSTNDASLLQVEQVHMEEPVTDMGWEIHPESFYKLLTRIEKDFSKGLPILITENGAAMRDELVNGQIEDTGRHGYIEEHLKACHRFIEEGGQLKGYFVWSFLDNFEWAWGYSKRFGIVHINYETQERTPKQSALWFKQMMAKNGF

For the molecule `CC(C)=CCC[C@](C)(O[C@@H]1O[C@H](CO[C@@H]2O[C@H](CO)[C@@H](O)[C@H](O)[C@H]2O)[C@@H](O)[C@H](O)[C@H]1O)[C@H]1CC[C@]2(C)[C@@H]1[C@H](O)C[C@@H]1[C@@]3(C)CC[C@H](O[C@@H]4O[C@H](CO)[C@@H](O)[C@H](O)[C@H]4O[C@@H]4O[C@H](CO)[C@@H](O)[C@H](O)[C@H]4O)C(C)(C)[C@@H]3CC[C@]12C` [ginsenoside Rb1], binding was characterised by a dissociation constant (Kd) of 524 µM.
